Patent US20250241901A1, “ACTIVATION OF MNRR1 / CHCHD2 AS A THERAPEUTIC TARGET FOR MITOCHONDRIA ASSOCIATED DISORDERS” (Wayne State University, priority 2024, published 2025)

Columns and labels:
Type in all cases: cell-based, human
HIF2α [1] = assay: HIF2α transcript levels (RT-PCR); conditions: 18S rRNA as housekeeper
Source text: FIG. 13: RT-PCR for measuring HIF2α levels. 18S rRNA was used as housekeeper for both analyses (n=3 biological replicates).
Real-time polymerase chain reaction (RT-PCR): Total cellular RNA was extracted from MELAS cells with a RNeasy Plus Mini Kit (Qiagen) according to the manufacturer's instructions. Complementary DNA (cDNA) was generated by reverse transcriptase polymerase chain reaction (PCR) using the ProtoScript® II First Strand cDNA Synthesis Kit (New England Biolabs, Ipswich, MA). Transcript levels were measured by real time PCR using SYBR green on an ABI 7500 system. Real-time analysis was performed by the ΔΔ^Ct method. The primers used were MNRR1 forward: 5′-[…]-3′ (SEQ ID NO: 9), reverse: 5′-[…]-3′ (SEQ ID NO: 10); 18s forward: 5′-[…]-3′ (SEQ ID NO: 11), reverse: 5′-[…]-3′ (SEQ ID NO: 12), PHD1(EGLN2) forward: 5′-[…]-3′ (SEQ ID NO: 13), reverse: 3′-TCCTTGGCATCAAAATACC-5′ [32](SEQ ID NO: 14); PHD3(EGLN3) forward 5′-[…]-3′ (SEQ ID NO: 15), reverse: 3′-ATGCAGGTGATGCAGCGA-5′ [33](SEQ ID NO: 16) and HIF2α (EPAS1) forward: 5′-[…]-3′ (SEQ ID NO: 17), reverse: 3′-[…]-5′ (SEQ ID NO: 18).

HIF2α [2] = assay: HIF2α protein levels in MELAS cybrid cells (immunoblot)
Experimental: FIGS. 10A-10E: The reduction of MNRR1 in MELAS cells is via HIF2α acting at the ORE and not the HRE. FIG. 10A: Above, Equal amounts of MELAS cell lysates, treated with vehicle (DMSO) or increasing amounts of tizoxanide (2.5 to 40 μM) for 24 h, were separated on an SDS-PAGE gel and probed for HIF2α, MNRR1, and Tubulin. Below, Protein quantification for MNRR1 and HIF2α relative to Tubulin. FIG. 10B: Dual luciferase reporter assay showing relative activation of MNRR1-luciferase in MELAS cybrid cells overexpressing WT (FIG. 9A), Δ 801-952 (FIG. 9A), ΔORE (positions 47-53 of SEQ ID NO: 25 in FIG. 9C) or ΔHRE (positions 59-66 of SEQ ID NO: 25 in FIG. 9C). FIG. 10C: Dual luciferase reporter assay showing relative activation of HRE-luciferase levels in cybrid cells with 0% (CL9) and 70% MELAS heteroplasmy (DW7). […]
Immunoblotting: Immunoblotting was performed as described previously. […] The clear supernatants were transferred to new tubes and quantified using the Bradford reagent with BSA as standard (BioRad, Hercules. CA). […] For detection after immunoblotting, the SuperSignal™ West Pico PLUS substrate (ThermoFisher, Waltham, MA) was used to generate chemiluminescence signal, which was detected with X-Ray film (RadTech, Vassar, MI).

MNRR1 = MNRR1 transcript levels in MELAS cells (RT-PCR); conditions: relative to 18S rRNA
Experimental: FIGS. 6A-6C: FIG. 6A: Above, Chemical structures of nitazoxanide, its metabolites, and similar compounds. Abbreviations: P4, Phenyl-4-aminosalicylic acid; 4ABA, 4-Aminobenzanilide; 4ASA, 4-Amino salicylic acid; BA, Benzanilide; PBO, Phenyl benzoate; PSA, Phenyl salicylic acid; 2AN, 2-Amino 5-nitrothiazole. Below, Equal amounts of lysates of MELAS cells treated with Vehicle (DMSO) or the various compounds (10 μM) for 24 h were separated on an SDS-PAGE gel and probed for MNRR1 levels. Actin was probed as a loading control and numbers below represent an average and SD of 3 biological replicates. FIGS. 6B-6C: MNRR1 transcript levels are shown relative to 18S rRNA (n=4 biological replicates, error bars represent SE). In all figures, * indicates p<0.05, ** indicates p<0.005.
Real-time polymerase chain reaction (RT-PCR): Total cellular RNA was extracted from MELAS cells with a RNeasy Plus Mini Kit (Qiagen) according to the manufacturer's instructions. Complementary DNA (cDNA) was generated by reverse transcriptase polymerase chain reaction (PCR) using the ProtoScript® II First Strand cDNA Synthesis Kit (New England Biolabs, Ipswich, MA). Transcript levels were measured by real time PCR using SYBR green on an ABI 7500 system. Real-time analysis was performed by the ΔΔ^Ct method. […]

PHD3 = PHD3 protein levels in MELAS cybrid cells (immunoblot); conditions: 10 μM, 24 h
Experimental: FIGS. 14A-14D: PHD3 levels are reduced in MELAS cybrid cells and enhanced by nitazoxanide to increase MNRR1 levels. FIG. 14A: Transcript levels of PHD1, 2, and 3 in MELAS cybrid cells harboring the levels of heteroplasmy shown (data from). FIG. 14B: Protein levels of PHD3 in MELAS cybrid cells with 0% (CL9) and 70% heteroplasmy (DW7). GAPDH was probed as loading control. FIG. 14C: Equal amounts of MELAS cybrid cell lysates, treated with vehicle (DMSO), nitazoxanide, or tizoxanide (10 μM) for 24 h, were separated on an SDS-PAGE gel and probed for PHD1, PHD3, MNRR1, and Tubulin. FIG. 14D: Oxygen consumption measured from MELAS cybrid cells overexpressing PHD1 or PHD3. (n=4 biological replicates, error bars show SE).
Immunoblotting: Immunoblotting was performed as described previously. Cell lysates for immunoblotting were prepared using RIPA buffer (Abcam, Waltham, MA) and included a protease and phosphatase inhibitor cocktail (Sigma, St. Louis, MO). Total protein extracts were obtained by centrifugation at 21,000×g for 30 min at 4° C. The clear supernatants were transferred to new tubes and quantified using the Bradford reagent with BSA as standard (BioRad, Hercules. CA). […] For detection after immunoblotting, the SuperSignal™ West Pico PLUS substrate (ThermoFisher, Waltham, MA) was used to generate chemiluminescence signal, which was detected with X-Ray film (RadTech, Vassar, MI).

| Compound | HIF2α transcript levels (HIF2α [1]) | levels of HIF2α (HIF2α [2]; MELAS cells) | MNRR1 transcription (MNRR1) | PHD3 protein level (PHD3) | HIF2α protein levels relative to MNRR1 (HIF2α [2]; MELAS cybrid cells, 2.5 to 40 μM, 24 h) |
| --- | --- | --- | --- | --- | --- |
| CC(=O)Oc1ccccc1C(=O)Nc1ncc([N+](=O)[O-])s1 [nitazoxanide, Nitazoxanide] | absence of any change | reduces | induced its transcription | increasing |  |
| O=C(Nc1ncc([N+](=O)[O-])s1)c1ccccc1O [tizoxanide, Tizoxanide] | absence of any change |  | induced its transcription | most increased | inversely proportional in a concentration dependent manner to MNRR1 |
